Laboratory results: patent US7074816B2, “1 2 4-triazole compound” (Fuji Yakuhin Co., Ltd., priority 2002, dated 2006)

Target: T1, xanthine oxidase (Rattus norvegicus, UniProt P22985)
T1 construct: administered orally to seven-week-old male Wistar rats (4 rats per group); from tissue; host or cells: whole animal (male Wistar rats); the enzyme is endogenous and was not isolated
Assay: Effect of lowering serum uric acid level in vivo (oral, Wistar rats)
Settings: male Wistar rats, 0.3 mg/5 ml/kg in 0.5% methylcellulose, blood collected 6 hours after administration
Experimental: Method for Evaluating the Effect of Lowering Serum Uric Acid Level In Vivo
Each of the test compounds was suspended in a 0.5% methylcellulose (MC) aqueous solution and administered orally to seven-week-old male Wistar rats (4 rats per group) compulsorily through a feeding tube at a dose of 0.3 mg/5 ml/kg (1 mg/5 ml/kg for Example 17 and Compound 44 of J. Medicinal Chemistry, (1975) as a control). The blood was collected from the orbital sinus at 6 hours after administration of the test compound. Each blood sample was allowed to clot for one hour and then centrifuged at 2000×g for 10 minutes to obtain serum. The uric acid level in the serum was determined using a kit (Wako Pure Chemicals Industries, Ltd.; phosphotungstic acid method) and a reduction rate of serum uric acid level was calculated by the following formula:
Reduction rate of serum uric acid level=(1-Average serum uric acid level in the group receiving a test compound/Average serum uric acid level in the group receiving MC)×100

T1 sequence (P22985 whole entry): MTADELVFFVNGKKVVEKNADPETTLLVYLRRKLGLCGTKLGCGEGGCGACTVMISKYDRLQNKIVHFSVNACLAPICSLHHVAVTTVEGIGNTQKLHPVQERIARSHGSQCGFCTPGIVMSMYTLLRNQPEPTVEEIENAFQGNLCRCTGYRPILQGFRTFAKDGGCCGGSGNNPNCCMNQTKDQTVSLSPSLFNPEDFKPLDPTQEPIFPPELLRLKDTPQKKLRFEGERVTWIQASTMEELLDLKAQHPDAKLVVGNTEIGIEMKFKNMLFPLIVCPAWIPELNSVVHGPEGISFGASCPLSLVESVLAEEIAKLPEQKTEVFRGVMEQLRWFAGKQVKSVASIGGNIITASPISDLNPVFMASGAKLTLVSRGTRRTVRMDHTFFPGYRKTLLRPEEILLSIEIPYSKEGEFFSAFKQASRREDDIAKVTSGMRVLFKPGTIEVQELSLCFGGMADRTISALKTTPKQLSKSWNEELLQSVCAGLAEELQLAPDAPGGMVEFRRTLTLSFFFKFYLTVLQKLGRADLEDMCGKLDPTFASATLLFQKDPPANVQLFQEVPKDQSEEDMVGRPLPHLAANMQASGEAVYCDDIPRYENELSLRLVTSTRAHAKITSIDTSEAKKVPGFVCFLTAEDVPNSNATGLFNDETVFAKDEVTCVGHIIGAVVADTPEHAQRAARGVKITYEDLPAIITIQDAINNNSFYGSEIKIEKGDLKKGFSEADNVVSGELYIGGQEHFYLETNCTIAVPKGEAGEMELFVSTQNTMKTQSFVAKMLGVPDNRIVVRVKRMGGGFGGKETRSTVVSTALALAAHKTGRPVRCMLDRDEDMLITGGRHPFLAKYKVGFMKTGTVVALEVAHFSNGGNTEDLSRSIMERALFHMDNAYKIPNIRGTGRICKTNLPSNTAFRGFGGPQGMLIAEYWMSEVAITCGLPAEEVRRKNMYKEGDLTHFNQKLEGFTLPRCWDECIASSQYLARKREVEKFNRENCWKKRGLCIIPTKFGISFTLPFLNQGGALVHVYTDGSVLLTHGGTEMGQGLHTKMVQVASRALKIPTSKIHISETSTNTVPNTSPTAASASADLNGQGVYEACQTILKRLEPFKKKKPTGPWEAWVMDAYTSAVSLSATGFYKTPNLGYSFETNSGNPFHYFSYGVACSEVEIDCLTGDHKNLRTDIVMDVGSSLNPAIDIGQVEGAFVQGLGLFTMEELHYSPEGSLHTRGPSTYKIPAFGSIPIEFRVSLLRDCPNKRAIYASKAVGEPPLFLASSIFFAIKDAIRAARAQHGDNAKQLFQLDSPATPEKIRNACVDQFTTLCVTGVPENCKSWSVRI

In order of rising “Reduction rate of serum uric acid level” value:
1. Cc1cc(-c2nc(-c3ccc(OCSc4ccccc4)c([N+](=O)[O-])c3)n[nH]2)ccn1 [Example 8, 5-(2-methyl-4-pyridyl)-3-(3-nitro-4-phenylthiomethyloxyphenyl)-1,2,4-triazole]  32.5%
2. Cc1cc(-c2n[nH]c(-c3ccc(OCC4CC4)c(C#N)c3)n2)ccn1 [Example 22, 3-(2-methyl-4-pyridyl)-5-(3-cyano-4-cyclopropylmethoxyphenyl)-1,2,4-triazole]  32.6%
3. Cc1cc(-c2nc(-c3ccnc(Cl)c3)n[nH]2)ccn1 [Example 27, 3-(2-chloro-4-pyridyl)-5-(2-methyl-4-pyridyl)-1,2,4-triazole]  32.9%
4. N#Cc1cc(-c2n[nH]c(-c3ccnc(Cl)c3)n2)ccn1 [Example 37, 3-(2-cyano-4-pyridyl)-5-(2-chloro-4-pyridyl)-1,2,4-triazole]  33.6%
5. C#CCOc1ccc(-c2nc(-c3ccnc(C)c3)n[nH]2)cc1C#N [Example 28, 3-(2-methyl-4-pyridyl)-5-(3-cyano-4-propargyloxyphenyl)-1,2,4-triazole]  35.3%
6. CSCOc1ccc(-c2n[nH]c(-c3ccnc(C)c3)n2)cc1[N+](=O)[O-] [Example 9, 5-(2-methyl-4-pyridyl)-3-(4-methylthiomethyloxy-3-nitrophenyl)-1,2,4-triazole]  35.7%
7. CC(C)Oc1ccc(-c2nc(-c3ccncc3)n[nH]2)cc1[N+](=O)[O-] [Example 16, 5-(4-isopropoxy-3-nitrophenyl)-3-(4-pyridyl)-1,2,4-triazole]  36.1%
8. COCCOc1ccc(-c2nc(-c3ccnc(C)c3)n[nH]2)cc1C#N [Example 31, 3-(2-methyl-4-pyridyl)-5-(3-cyano-4-methoxyethoxyphenyl)-1,2,4-triazole]  36.5%
9. COc1ccc(-c2nc(-c3ccnc(C)c3)n[nH]2)cc1C#N [Example 26, 3-(2-methyl-4-pyridyl)-5-(3-cyano-4-methoxyphenyl)-1,2,4-triazole]  37.9%
10. COc1ccc(COc2ccc(-c3nc(-c4ccnc(C)c4)n[nH]3)cc2C#N)cc1 [Example 24, 3-(2-methyl-4-pyridyl)-5-[3-cyano-4-(4-methoxybenzyloxy)phenyl]-1,2,4-triazole]  38.3%
11. Cc1cc(-c2nc(-c3ccc(NCC(C)C)c([N+](=O)[O-])c3)n[nH]2)ccn1 [Example 5, 3-(4-isobutylamino-3-nitrophenyl)-5-(2-methyl-4-pyridyl)-1,2,4-triazole]  39.9%
12. COCCOCOc1ccc(-c2n[nH]c(-c3ccnc(C)c3)n2)cc1C#N [Example 3, 3-[3-cyano-4-{(2-methoxy)ethoxymethyl}oxyphenyl]-5-(2-methyl-4-pyridyl)-1,2,4-triazole]  40.0%
13. Cc1cc(-c2nc(-c3ccc(Sc4ccccc4)c([N+](=O)[O-])c3)n[nH]2)ccn1 [Example 6, 5-(2-methyl-4-pyridyl)-3-(3-nitro-4-phenylthiophenyl)-1,2,4-triazole]  40.6%
14. Cc1cc(-c2n[nH]c(-c3ccc(OCCOCCOCCCl)c(C#N)c3)n2)ccn1 [Example 29, 3-(2-methyl-4-pyridyl)-5-[3-cyano-4-{(<2-chloroethoxy>ethoxy)ethoxy}phenyl]-1,2,4-triazole]  40.7%
15. Cc1cc(-c2nc(-c3ccnc(C#N)c3)n[nH]2)ccn1 [Example 23, 3-(2-cyano-4-pyridyl)-5-(2-methyl-4-pyridyl)-1,2,4-triazole]  41.1%
16. CCCCOc1ccc(-c2n[nH]c(-c3ccncc3)n2)cc1[N+](=O)[O-] [Example 15, 3-(4-butoxy-3-nitrophenyl)-5-(4-pyridyl)-1,2,4-triazole]  41.2%
17. Cc1cc(-c2nc(-c3ccc(OCOCc4ccccc4)c([N+](=O)[O-])c3)n[nH]2)ccn1 [Example 10, 3-(4-benzyloxymethyloxy-3-nitrophenyl)-5-(2-methyl-4-pyridyl)-1,2,4-triazole]  41.6%
18. Cc1cc(-c2nc(-c3ccc(OCC4CCCCO4)c([N+](=O)[O-])c3)n[nH]2)ccn1 (centres unmarked) [Example 11, 5-(2-methyl-4-pyridyl)-3-[3-nitro-4-(2-tetrahydropyranylmethyl)oxyphenyl]-1,2,4-triazole]  41.6%
19. Cc1cc(-c2nc(-c3ccc(SCC(C)C)c([N+](=O)[O-])c3)n[nH]2)ccn1 [Example 7, 3-(4-isobutylthio-3-nitrophenyl)-5-(2-methyl-4-pyridyl)-1,2,4-triazole]  42.7%
20. Cc1cc(-c2nc(-c3ccc(OCC(C)C)c([N+](=O)[O-])c3)nn2COC(=O)C(C)(C)C)ccn1 [Example 14, 3-(4-isobutoxy-3-nitrophenyl)-5-(2-methyl-4-pyridyl)-N-pivaloyloxymethyl-1,2,4-triazole]  43.0%
21. Cc1cc(-c2nc(-c3ccc(N4CCN(C)CC4)c([N+](=O)[O-])c3)n[nH]2)ccn1 [Example 4, 3-[4-(4-methyl-1-piperazino)-3-nitrophenyl]-5-(2-methyl-4-pyridyl)-1,2,4-triazole]  43.9%
22. COCCOCCOCCOc1ccc(-c2nc(-c3ccnc(C)c3)n[nH]2)cc1C#N [Example 33, 3-(2-methyl-4-pyridyl)-5-[3-cyano-4-{(<2-methoxyethoxy>ethoxy)ethoxy}phenyl]-1,2,4-triazole]  44.7%
23. CC(C)COc1ccc(-c2n[nH]c(-c3ccncc3)n2)cc1[N+](=O)[O-] [Example 13, 3-(4-isobutoxy-3-nitrophenyl)-5-(4-pyridyl)-1,2,4-triazole]  46.8%
24. N#Cc1cc(-c2n[nH]c(-c3cc[n+]([O-])cc3)n2)ccn1 [Example 35, 3-(2-cyano-4-pyridyl)-5-(1-oxy-4-pyridyl)-1,2,4-triazole]  46.8%
25. Cc1cc(-c2n[nH]c(-c3ccc(OCCC(C)C)c(C#N)c3)n2)ccn1 [Example 25, 3-(2-methyl-4-pyridyl)-5-(3-cyano-4-isopentyloxyphenyl)-1,2,4-triazole]  47.2%
26. N#Cc1cc(-c2nc(-c3ccncc3)n[nH]2)ccn1 [Example 12, 5-(2-cyano-4-pyridyl)-3-(4-pyridyl)-1,2,4-triazole]  51.1%
27. COCCOCCOc1ccc(-c2nc(-c3ccnc(C)c3)n[nH]2)cc1C#N [Example 32, 3-(2-methyl-4-pyridyl)-5-[3-cyano-4-{(2-methoxyethoxy)ethoxy}phenyl]-1,2,4-triazole]  52.0%
28. COc1ccc(-c2nc(-c3ccnc(C)c3)n[nH]2)cc1[N+](=O)[O-] [Example 21, 3-(2-methyl-4-pyridyl)-5-(3-nitro-4-methoxyphenyl)-1,2,4-triazole]  52.9%
29. CC(C)COc1ccc(-c2n[nH]c(-c3ccncc3)n2)cc1C#N [Example 2, 3-(3-cyano-4-isobutoxyphenyl)-5-(4-pyridyl)-1,2,4-triazole]  62.3%
30. Cc1cc(-c2nc(-c3ccc(OCC(C)C)c([N+](=O)[O-])c3)n[nH]2)ccn1 [Example 1, 3-(4-isobutoxy-3-nitrophenyl)-5-(2-methyl-4-pyridyl)-1,2,4-triazole]  66.5%
31. Cc1cc(-c2n[nH]c(-c3ccc(OCC(C)C)c(C#N)c3)n2)ccn1 [Example 20, 3-(2-methyl-4-pyridyl)-5-(3-cyano-4-isobutoxyphenyl)-1,2,4-triazole]  67.5%

Same assay, conditions: male Wistar rats, 1 mg/5 ml/kg in 0.5% methylcellulose, blood collected 6 hours after administration

CC(C)COc1ccc(-c2n[nH]c(-c3ccnc(Cl)c3)n2)cc1[N+](=O)[O-] [Example 17, 5-(2-chloro-4-pyridyl)-3-(4-isobutoxy-3-nitrophenyl)-1,2,4-triazole] was tested, and the “Reduction rate of serum uric acid level” value was 40.6%.
